According to patent US12576082B2, “METTL16 inhibitors and uses thereof” (City of Hope, priority 2019, dated 2026):
Values belong to the molecule of their own block, whether it stands above or below them.

Key:
human NOMO-1 AML cells = test: Viability of human NOMO-1 AML cells (MTT, CellTiter 96); type: cell-based; conditions: NOMO-1 cells, 10,000 cells/well, 72 h treatment, read-out: IC50 in inhibiting the viability of human NOMO-1 AML cells
Description: (§1) Cell viability and proliferation assay. Cell viability and proliferation were performed with CellTiter 96 Non-Radioactive Cell Proliferation Assay (MTT, […], Promega). To verify the function of METTL16 inhibitor, cancer cells were seeded into 96-well plate and treated with a series of drug concentration in triplicates. For the cell proliferation with METTL16 knockdown stable cell lines were seeded into 96-well plates, and cultured in the incubator at 37° C. with 5% CO2. 15 μl of the Dye Solution was added into each well. After incubation of 2-4 h, 100 μl of the Solubilization Solution/Stop Mix was added to each well. Finally, the absorbance was determined at 570 nm on the next day.
The compounds described herein were tested for their ability to inhibit the viability of human NOMO-1 AML cells. […] Cell viability. NOMO-1 cells were seeded into 96-well plate in the concentration of 10,000 cells/well and treated with compounds in triplicates for 72 h. Cell viability was assessed by CellTiter 96 Non-Radioactive Cell Proliferation Assay (MTT, G4100, Promega) following the manufacturer's protocols.

AML and other cancers = test: Cell viability of cancer cell lines on CDH24 treatment (MTT); type: cell-based, human
Description: as §1
FIG. 4A provides a Western blots analysis showing the levels of METTL16 expression in various AML cell lines (Kasumi-1, MONOMAC6 (MM6), K562, ML-2, 9.3ITD, U937) and normal bone marrow (BM) mononuclear cells. Actin served as a loading control. […] The values were detected by MTT assays 48 or 72 hours post treatment. In FIGS. 4A-4K: *p<0.05; **p<0.01; ***p<0.001; t test. Error bars, mean±SEM (n≥3)

METTL16 [1] = target: T1, METTL16 (Homo sapiens, UniProt Q86W50); test: Cellular thermal shift assay (CETSA) in U937 cells; type: binding; conditions: 50 μM CDH24 1 h, different temperatures, immunoblot
T1 construct: endogenous in cells; host or cells: U937, Kasumi-1, MA9.3RAS (human AML cells)
T1 sequence (Q86W50 1-562): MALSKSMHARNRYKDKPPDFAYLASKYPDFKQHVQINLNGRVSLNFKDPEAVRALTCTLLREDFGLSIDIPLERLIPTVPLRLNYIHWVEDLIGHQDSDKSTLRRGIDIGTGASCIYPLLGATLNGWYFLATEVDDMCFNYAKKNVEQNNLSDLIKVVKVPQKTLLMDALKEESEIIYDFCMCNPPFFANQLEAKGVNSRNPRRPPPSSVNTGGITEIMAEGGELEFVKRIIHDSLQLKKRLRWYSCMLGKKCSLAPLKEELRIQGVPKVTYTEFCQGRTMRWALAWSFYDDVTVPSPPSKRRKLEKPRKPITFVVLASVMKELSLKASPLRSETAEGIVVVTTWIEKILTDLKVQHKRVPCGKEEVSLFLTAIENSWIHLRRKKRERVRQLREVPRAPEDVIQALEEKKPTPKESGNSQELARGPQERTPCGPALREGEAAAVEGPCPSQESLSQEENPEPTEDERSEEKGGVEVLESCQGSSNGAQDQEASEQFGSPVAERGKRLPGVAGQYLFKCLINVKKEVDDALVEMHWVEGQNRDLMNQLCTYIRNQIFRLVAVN
Description: Cellular Thermal Shift Assay (CETSA). […] Then, the cells were re-suspended in 1.5 ml PBS supplemented with protease inhibitor cocktail. And the cells were distributed into 10 different 200 ul 8-strip PCR tubes with 100 ul for each tube, heat shocked in the Bio-Rad T100 Thermal Cycler at indicated temperature for 3 min to denature proteins, and immediately cooled down at room temperature for 3 min. cells were lysed using dry ice and two repeated cycles of freeze-thaw, then centrifuged at 20,000 g for 20 min at 4° C. Soluble proteins, collected from the supernatant were denatured with 4× Laemmli Sample Buffer at 99° C. for 10 min. Finally, the protein samples were analyzed by western blot.
(§2) For DARTS, U937 cell lysates were treated with CDH-24 (from 0.1 uM to 500 uM) or DMSO; samples were subjected to pronase digestion and detected by immunoblotting. Actin was resistant to subtilizing under these conditions and served as a loading control. […] METTL16 knockdown by shRNAs was confirmed by western blots (FIG. 5D). […] In FIGS. 5A-5F: *p<005; **p<0.01: ***p<0001; t test. Error bars, mean±SEM (n≥3).

METTL16 [2] = target: T1, METTL16; test: Drug affinity responsive target stability (DARTS) in U937 cell lysates; type: binding; conditions: CDH24 0.1 uM to 500 uM, pronase digestion, immunoblot
Description: Drug Affinity Responsive Targets Stability (DARTS). […] In short, 4×10^7 U937 cells were collected, washed with chilled PBS, and lysed in 600 ul M-PER (78501, Thermo Fisher Scientific) supplement with protease inhibitor cocktail and phosphatase inhibitor cocktail. The cells were lysed on ice for 10 min, and centrifuged at 18,000 g for 10 min at 4° C. The supernatant was carefully transferred to a new tube. 10× TNC buffer (500 mM Tris-HCl with pH 8.0, 500 mM NaCl, 100 mM CaCl2) was added into lysate, the protein concentration was then detected by BCA assay. The protein concentration diluted with 1× TNC buffer was adjusted to 5 ug/ul. […] The reaction was quenched by addition of protease inhibitor cocktail and the sample was immediately placed on ice. 4× Laemmli Sample Buffer was added to lysate and denatured at 99° C. for 10 min. Finally, western blotting was used to determine the abundance of METTL16.
as §2

METTL16 [3] = target: T1, METTL16; test: m6A dot blot, global m6A in AML cells; type: cell-based
Description: m^6A dot blot assay. Total RNA was purified with QIAzol regent, and mixed well with 3 volumes of RNA incubation buffer, then denatured at 65° C. for 5 minutes and cooling down on ice immediately. 200 ul of 10×SSC buffer (S6639, Sigma-Aldrich) was loaded onto the Amersham Hybond-N+ membrane for each well to pre-wet the membrane. Then one volume of 20×SSC buffer was added into the RNA samples before dotted onto the membrane. The UV irradiation was used to crosslink RNA to the membrane. After crosslink, the membrane was stained by 0.02% methylene blue and scanned as loading control. Then, the membrane was blocked with 5% nonfat dry milk at room temperature for 1 h and incubated with anti-m6A antibody (1:2000, Synaptic Systems) overnight at 4° C. Next day, the membrane was incubated with the HRP-conjugated goat anti-rabbit IgG (ab6721, abcam) at room temperature for 1 h and developed with pierce ECL Western blotting Substrate (PI32106, Thermo Fisher).
MB, methyl blue (as loading control). FIGS. 6B-6C show gene-specific m^6A qPCR analysis of m^6A level changes in mRNA transcripts of several known target transcripts of METTL16 in U937 (FIG. 6B) or MA9.3RAS (FIG. 6C) AML cells upon 72 hours treatment of […], relative to cells treated with DMSO.

AML cells = test: Cell viability and growth in AML cells (FIGS. 9A-9B); type: cell-based
Description: as §1

Compound: Nc1nc(N)c2c(ccc3[nH]ccc32)n1 [Compound H]
IC50 (human NOMO-1 AML cells): 931 nM

binding to METTL16 by CETSA (METTL16 [1]): direct binding
binding to METTL16 by DARTS (METTL16 [2]): direct binding
methyltransferase activity of METTL16 and expression of METTL16 target genes (METTL16 [3]; FIGS. 6A-6C): inhibitory effect
levels of global m^6A (METTL16 [3]; U937, Kasumi-1 and MA9.3RAS AML cells, 48 hours treatment): increases
Compound: Nc1ccc(Cn2ccc3c4c(N)nc(N)nc4ccc32)cc1 [CDH24]
cell viability and growth in AML and other cancers (AML and other cancers; FIGS. 4A-4K): inhibitory effect
cell viability in ALL, lymphoma, cervical cancer, pancreatic cancer and glioblastoma cell lines (AML and other cancers; MTT assay 72 hours post treatment, series of concentrations): inhibitory effects

Compound: Nc1ccc(Cn2ccc3c4c(N)nc(N)nc4ccc32)c(CO)c1 [CDH24-6]
cell viability and growth in AML cells (AML cells): inhibit cell viability and growth

Compound: Nc1ccc(CO)c(Cn2ccc3c4c(N)nc(N)nc4ccc32)c1 [CDH24-7]
cell viability and growth in AML cells (AML cells): inhibit cell viability and growth

Compound: N#Cc1ccc(C(=O)n2ccc3c4c(N)nc(N)nc4ccc32)cc1 [Compound (G)]
IC50 (human NOMO-1 AML cells): 736 nM

Compound: CC(=O)Nc1ccc(Cn2ccc3c4c(N)nc(N)nc4ccc32)cc1 [Compound D]
IC50 (human NOMO-1 AML cells): 1.4 nM

Compound: Nc1nc(N)c2c(ccc3c2ccn3Cc2ccc(Cl)cc2)n1 [Compound (F)]
IC50 (human NOMO-1 AML cells): 1.55 nM

Compound: N#Cc1ccc(-n2ccc3c4c(N)nc(N)nc4ccc32)cc1 [Compound (E)]
IC50 (human NOMO-1 AML cells): 20.6 nM
